What was measured:
Assay type in all cases: in vivo
[1] = system: Plutella xylostella (Diamondback Moth); experiment: Example B13: Plutella xylostella (Diamondback Moth), artificial diet, 96-well; settings: 216 h, application rate of 500 ppm, eggs/L1 larvae, 9 days after infestation
Experimental: Example B13: Plutella xylostella (Diamondback Moth)
96-well microtiter plates containing artificial diet were treated with aqueous test solutions, prepared from 10′000 ppm DMSO stock solutions, by a liquid handling robot. After drying, eggs (˜30 per well) were infested onto a netted lid which was suspended above the diet. The eggs hatch and L1 larvae move down to the diet. The samples were assessed for mortality 9 days after infestation.

[2] = system: Spodoptera littoralis (Egyptian Cotton Leaf Worm); experiment: Example B9: Spodoptera littoralis (Egyptian Cotton Leaf Worm), sprayed cotton leaf discs; settings: foliar, 72 h, application rate of 200 ppm, L1 larvae, 3 days after infestation, read-out: control in at least one of the three categories (mortality, anti-feedant or growth inhibition)
[3] = system: Plutella xylostella (Diamond Back Moth); experiment: Example B5: Plutella xylostella (Diamond Back Moth), artificial diet, 24-well; settings: 192 h, application rate of 200 ppm, eggs, 8 days after infestation, read-out: control in at least one of the two categories (mortality or growth inhibition)
Experimental: Example B5: Plutella xylostella (Diamond Back Moth)
24-well microtiter plates with artificial diet were treated with aqueous test solutions prepared from 10′000 ppm DMSO stock solutions by pipetting. After drying, Plutella eggs were pipetted through a plastic stencil onto a gel blotting paper and the plate was closed with it. The samples were assessed for mortality and growth inhibition in comparison to untreated samples 8 days after infestation.

[4] = system: Chilo suppressalis (Striped Rice Stemborer); experiment: Example B4: Chilo suppressalis (Striped Rice Stemborer), artificial diet; settings: 144 h, application rate of 200 ppm, L2 larvae, 6 days after infestation, read-out: control in at least one of the three categories (mortality, anti-feedant or growth inhibition)
Experimental: Example B4: Chilo suppressalis (Striped Rice Stemborer)
24-well microtiter plates with artificial diet were treated with aqueous test solutions prepared from 10′000 ppm DMSO stock solutions by pipetting. After drying, the plates were infested with L2 larvae (6-8 per well). The samples were assessed for mortality, anti-feeding effect, and growth inhibition in comparison to untreated samples 6 days after infestation. Control of Chilo suppressalis by a test sample is given when at least one of the categories mortality, anti-feedant effect, and growth inhibition is higher than the untreated sample.

[5] = system: Diabrotica balteata (Corn Root Worm); experiment: Example B1: Diabrotica balteata (Corn Root Worm), sprayed maize sprouts; settings: 96 h, application rate of 200 ppm, L2 larvae, 4 days after infestation, read-out: control in at least one of the two categories (mortality or growth inhibition)
Experimental: Example B1: Diabrotica balteata (Corn Root Worm)
Maize sprouts placed onto an agar layer in 24-well microtiter plates were treated with aqueous test solutions prepared from 10′000 ppm DMSO stock solutions by spraying. After drying, the plates were infested with L2 larvae (6 to 10 per well). The samples were assessed for mortality and growth inhibition in comparison to untreated samples 4 days after infestation.

CC(NC(=O)c1cc(C(F)(F)F)nc(C2(C#N)CC2)c1)c1nccnc1-c1ccc(OCC(F)(F)F)cn1 (stereo not drawn) [P23, 2-(1-cyanocyclopropyl)-N-[1-[3-[5-(2,2,2-trifluoroethoxy)-2-pyridyl]pyrazin-2-yl]ethyl]-6-(trifluoromethyl)pyridine-4-carboxamide]
≥ 80%: mortality at 500 ppm [1] | percent control (mortality, anti-feedant effect or growth inhibition) at 200 ppm [2] | percent control (mortality or growth inhibition) at 200 ppm [3] | percent control (mortality, anti-feedant effect or growth inhibition) at 200 ppm [4] | percent control (mortality or growth inhibition) at 200 ppm [5]

CC(NC(=O)c1cc(C(F)(F)F)cc(C2(C#N)CC2)c1)c1nccnc1-c1ccc(OCC(F)(F)F)cn1 (stereo not drawn) [P24, 3-(1-cyanocyclopropyl)-N-[1-[3-[5-(2,2,2-trifluoroethoxy)-2-pyridyl]pyrazin-2-yl]ethyl]-5-(trifluoromethyl)benzamide]
≥ 80%: mortality at 500 ppm [1] | percent control (mortality, anti-feedant effect or growth inhibition) at 200 ppm [2] | percent control (mortality or growth inhibition) at 200 ppm [3] | percent control (mortality, anti-feedant effect or growth inhibition) at 200 ppm [4] | percent control (mortality or growth inhibition) at 200 ppm [5]

CC(NC(=O)c1cc(C(F)(F)F)cc(C(F)(F)C2CC2)c1)c1nccnc1-c1ncc(OCC(F)F)cn1 (stereo not drawn) [P39, 3-[cyclopropyl(difluoro)methyl]-N-[1-[3-[5-(2,2-difluoroethoxy)pyrimidin-2-yl]pyrazin-2-yl]ethyl]-5-(trifluoromethyl)benzamide]
≥ 80%: mortality at 500 ppm [1] | percent control (mortality, anti-feedant effect or growth inhibition) at 200 ppm [2] | percent control (mortality or growth inhibition) at 200 ppm [3] | percent control (mortality, anti-feedant effect or growth inhibition) at 200 ppm [4]

CC(NC(=O)c1cc(C(F)(F)F)cc(C2(C#N)CC2)c1)c1nccnc1-c1ccc(OCC(F)F)cn1 (stereo not drawn) [P33, 3-(1-cyanocyclopropyl)-N-[1-[3-[5-(2,2-difluoroethoxy)-2-pyridyl]pyrazin-2-yl]ethyl]-5-(trifluoromethyl)benzamide]
≥ 80%: mortality at 500 ppm [1] | percent control (mortality, anti-feedant effect or growth inhibition) at 200 ppm [2] | percent control (mortality or growth inhibition) at 200 ppm [3] | percent control (mortality, anti-feedant effect or growth inhibition) at 200 ppm [4] | percent control (mortality or growth inhibition) at 200 ppm [5]

CC(NC(=O)c1cc(C(F)(F)F)cc(S(=O)(=O)C(F)(F)F)c1)c1nccnc1-c1ncc(OC(F)F)cn1 (stereo not drawn) [P19, N-[1-[3-[5-(difluoromethoxy)pyrimidin-2-yl]pyrazin-2-yl]ethyl]-3-(trifluoromethyl)-5-(trifluoromethylsulfonyl)benzamide]
≥ 80%: mortality at 500 ppm [1] | percent control (mortality, anti-feedant effect or growth inhibition) at 200 ppm [2] | percent control (mortality or growth inhibition) at 200 ppm [3] | percent control (mortality, anti-feedant effect or growth inhibition) at 200 ppm [4] | percent control (mortality or growth inhibition) at 200 ppm [5]

CC(NC(=O)c1cc(C2CC2)cc(C(F)(F)F)c1)c1nccnc1-c1ccc(OCC(F)F)cn1 (stereo not drawn) [P26, 3-cyclopropyl-N-[1-[3-[5-(2,2-difluoroethoxy)-2-pyridyl]pyrazin-2-yl]ethyl]-5-(trifluoromethyl)benzamide]
≥ 80%: mortality at 500 ppm [1] | percent control (mortality, anti-feedant effect or growth inhibition) at 200 ppm [2] | percent control (mortality or growth inhibition) at 200 ppm [3] | percent control (mortality, anti-feedant effect or growth inhibition) at 200 ppm [4]

CC(NC(=O)c1cc(C(F)(F)F)cc(S(=O)(=O)C(F)(F)F)c1)c1nccnc1-c1ccc(OCC(F)F)cn1 (stereo not drawn) [P20, N-[1-[3-[5-(2,2-difluoroethoxy)-2-pyridyl]pyrazin-2-yl]ethyl]-3-(trifluoromethyl)-5-(trifluoromethylsulfonyl)benzamide]
≥ 80%: mortality at 500 ppm [1] | percent control (mortality, anti-feedant effect or growth inhibition) at 200 ppm [4]

CC(NC(=O)c1cc(C2CC2)cc(C(F)(F)F)c1)c1nccnc1-c1ncc(OC(F)F)cn1 (stereo not drawn) [P41, 3-cyclopropyl-N-[1-[3-[5-(difluoromethoxy)pyrimidin-2-yl]pyrazin-2-yl]ethyl]-5-(trifluoromethyl)benzamide]
≥ 80%: mortality at 500 ppm [1] | percent control (mortality, anti-feedant effect or growth inhibition) at 200 ppm [2] | percent control (mortality or growth inhibition) at 200 ppm [3] | percent control (mortality, anti-feedant effect or growth inhibition) at 200 ppm [4] | percent control (mortality or growth inhibition) at 200 ppm [5]

CC(NC(=O)c1cc(C2CC2C(F)(F)F)cc(C(F)(F)F)c1)c1nccnc1-c1ncc(OCC(F)F)cn1 (stereo not drawn) [P38, N-[1-[3-[5-(2,2-difluoroethoxy)pyrimidin-2-yl]pyrazin-2-yl]ethyl]-3-(trifluoromethyl)-5-[2-(trifluoromethyl)cyclopropyl]benza-mide]
≥ 80%: mortality at 500 ppm [1] | percent control (mortality, anti-feedant effect or growth inhibition) at 200 ppm [2] | percent control (mortality or growth inhibition) at 200 ppm [3] | percent control (mortality, anti-feedant effect or growth inhibition) at 200 ppm [4] | percent control (mortality or growth inhibition) at 200 ppm [5]

CC(NC(=O)c1cc(C(F)(F)F)nc(C2(C#N)CC2)c1)c1nccnc1-c1ccc(OC(F)F)cn1 (stereo not drawn) [P1, 2-(1-cyanocyclopropyl)-N-[1-[3-[5-(difluoromethoxy)-2-pyridyl]pyrazin-2-yl]ethyl]-6-(trifluoromethyl)pyridine-4-carboxamide]
≥ 80%: percent control (mortality, anti-feedant effect or growth inhibition) at 200 ppm [2] | percent control (mortality or growth inhibition) at 200 ppm [3] | percent control (mortality, anti-feedant effect or growth inhibition) at 200 ppm [4] | percent control (mortality or growth inhibition) at 200 ppm [5]

CC(NC(=O)c1cc(C(F)(F)F)cc(C(C)(C)C#N)c1)c1nccnc1-c1ncc(OC(F)F)cn1 (stereo not drawn) [P8, 3-(1-cyano-1-methyl-ethyl)-N-[1-[3-[5-(difluoromethoxy)pyrimidin-2-yl]pyrazin-2-yl]ethyl]-5-(trifluoromethyl)benzamide]
≥ 80%: percent control (mortality, anti-feedant effect or growth inhibition) at 200 ppm [2] | percent control (mortality or growth inhibition) at 200 ppm [3] | percent control (mortality, anti-feedant effect or growth inhibition) at 200 ppm [4] | percent control (mortality or growth inhibition) at 200 ppm [5]

CC(NC(=O)c1cc(C(F)(F)F)cc(C2(C#N)CC2)c1)c1nccnc1-c1ccc(OC(F)F)cn1 (stereo not drawn) [P3, 3-(1-cyanocyclopropyl)-N-[1-[3-[5-(difluoromethoxy)-2-pyridyl]pyrazin-2-yl]ethyl]-5-(trifluoromethyl)benzamide]
≥ 80%: percent control (mortality, anti-feedant effect or growth inhibition) at 200 ppm [2] | percent control (mortality or growth inhibition) at 200 ppm [3] | percent control (mortality, anti-feedant effect or growth inhibition) at 200 ppm [4] | percent control (mortality or growth inhibition) at 200 ppm [5]

CC(NC(=O)c1cc(C(F)(F)F)cc(C(F)(F)C2CC2)c1)c1nccnc1-c1ccc(OCC(F)(F)F)cn1 (stereo not drawn) [P31, 3-[cyclopropyl(difluoro)methyl]-N-[1-[3-[5-(2,2,2-trifluoroethoxy)-2-pyridyl]pyrazin-2-yl]ethyl]-5-(trifluoromethyl)benzamide]
≥ 80%: mortality at 500 ppm [1]

CC(NC(=O)c1cc(C2CC2)cc(C(F)(F)F)c1)c1nccnc1-c1ccc(OCC(F)(F)F)cn1 (stereo not drawn) [P27, 3-cyclopropyl-N-[1-[3-[5-(2,2,2-trifluoroethoxy)-2-pyridyl]pyrazin-2-yl]ethyl]-5-(trifluoromethyl)benzamide]
≥ 80%: mortality at 500 ppm [1] | percent control (mortality or growth inhibition) at 200 ppm [3] | percent control (mortality, anti-feedant effect or growth inhibition) at 200 ppm [4] | percent control (mortality or growth inhibition) at 200 ppm [5]

Reference: patent US12281095B2, “Pesticidally active diazine-amide compounds” (SYNGENTA CROP PROTECTION AG, priority 2019, dated 2025)
